In ChEMBL document CHEMBL5260849, “Current advances in Vibrio harveyi quorum sensing as drug discovery targets” (Eur J Med Chem, 2020):

How the values were obtained:
[1] = Inhibition of quorum-sensing system in Vibrio harveyi MM32 assessed as inhibition of AI-2 mediated bioluminescence incubated for 4 to 6 hrs by bioluminescence assay
[2] = Inhibition of quorum-sensing system in Vibrio harveyi BB170 assessed as inhibition of AI-2 at 0.1 to 10 uM and measured after 24 hrs by bioluminescence assay; settings: dose 0.1-10 µM
[3] = target: T1, Autoinducer 1 sensor kinase/phosphatase LuxN (Vibrio harveyi, UniProt P0C5S6); test: Antagonist activity against Vibrio harveyi BB120 LuxN assessed as inhibition of AI-2 regulated bioluminescence and measured after 6 hrs by bioluminescence assay
T1 sequence (P0C5S6 whole entry): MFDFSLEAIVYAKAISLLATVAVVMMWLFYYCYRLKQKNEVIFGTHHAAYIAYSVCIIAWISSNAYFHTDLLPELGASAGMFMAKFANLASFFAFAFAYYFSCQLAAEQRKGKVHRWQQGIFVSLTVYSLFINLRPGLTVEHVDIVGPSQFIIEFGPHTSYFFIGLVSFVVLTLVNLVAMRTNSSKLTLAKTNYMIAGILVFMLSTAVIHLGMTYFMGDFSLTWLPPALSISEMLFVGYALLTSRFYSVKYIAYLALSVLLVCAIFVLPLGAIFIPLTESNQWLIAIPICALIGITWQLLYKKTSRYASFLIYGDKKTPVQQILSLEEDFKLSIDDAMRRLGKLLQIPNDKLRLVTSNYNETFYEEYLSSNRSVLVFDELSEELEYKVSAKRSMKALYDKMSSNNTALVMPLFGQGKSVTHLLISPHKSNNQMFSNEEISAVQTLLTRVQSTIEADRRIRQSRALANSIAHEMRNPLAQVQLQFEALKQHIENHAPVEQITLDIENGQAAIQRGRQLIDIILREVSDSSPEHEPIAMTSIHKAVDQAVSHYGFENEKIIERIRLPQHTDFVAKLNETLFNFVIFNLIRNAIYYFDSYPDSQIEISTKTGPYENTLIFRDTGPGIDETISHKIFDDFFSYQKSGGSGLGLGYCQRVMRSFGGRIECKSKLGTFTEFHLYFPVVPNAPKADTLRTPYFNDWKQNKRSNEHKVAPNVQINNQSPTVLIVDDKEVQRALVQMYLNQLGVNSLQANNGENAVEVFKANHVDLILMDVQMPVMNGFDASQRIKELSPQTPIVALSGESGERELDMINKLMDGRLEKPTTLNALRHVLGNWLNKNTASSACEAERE

[4] = target: T2, HTH-type transcriptional regulator LuxR (Vibrio harveyi) (UniProt P21308); test: Inhibition of LuxR quorum sensing system in Vibrio harveyi BB120 assessed as inhibition of autoinducer-2 induced luxR activity at 100 uM for 16 hrs by bioluminescence assay
T2 sequence (whole entry): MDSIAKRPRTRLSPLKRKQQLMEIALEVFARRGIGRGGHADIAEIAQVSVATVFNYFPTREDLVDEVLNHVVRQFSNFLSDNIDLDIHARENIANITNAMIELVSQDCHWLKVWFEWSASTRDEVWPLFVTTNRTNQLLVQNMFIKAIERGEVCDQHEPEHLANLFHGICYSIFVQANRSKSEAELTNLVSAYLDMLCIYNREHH

[5] = Inhibition of quorum-sensing system in Vibrio harveyi BB170 assessed as inhibition of LuxU induced bioluminescence by bioluminescence assay; set-up: concentration or dose not given beside the values; settings: concentration not given here
LuxP/Q (Vibrio harveyi) = LuxP/Q (Vibrio harveyi) (UniProt P54300+P54302); test: Antagonist activity against Vibrio harveyi BB886 LuxPQ assessed as inhibition of AI-2 induced bioluminescence at 40 uM and measured after 6 hrs by bioluminescence assay; format: protein-complex assay
LuxP/Q = LuxP/Q (Vibrio harveyi, UniProt P54300+P54302); test: Antagonist activity against LuxPQ quorum sensing system in Vibrio harveyi MM32 assessed as inhibition of luminescence intensity incubated for 3 to 4 hrs by luminescence microplate reader analysis; format: protein-complex assay
Vibrio harveyi [6] = test: Inhibition of biofilm formation in Vibrio harveyi BB120 at 500 uM for 24 hrs by crystal violet assay; format: functional
[7] = target: Autoinducer 2-binding periplasmic protein LuxP (Vibrio harveyi) (UniProt P54300); test: Antagonist activity against LuxP signalling in Vibrio harveyi BB170 assessed as inhibition of AI-2 regulated bioluminescence at 20 to 40 uM and measured after 2.5 hrs by bioluminescence assay; settings: filed as antagonist, dose 20-40 µM
[8] = Toxicity in […] mouse with abdominal infection assessed survival rate at 4.5 microg/g,ip and measured after 4 days; settings: in vivo, dose 4.5 µg/g, time 4 day
Vibrio harveyi [9] = test: Inhibition of CAI-1 mediated quorum-sensing in Vibrio harveyi JMH626 assessed as inhibition of CAI-1 mediated luminescence at 2 uM by bioluminescence assay
Vibrio harveyi [10] = test: Inhibition of Vibrio harveyi BB886 LuxS assessed as inhibition of autoinducer-2 induced QS activity at 100 uM for 16 hrs by bioluminescence assay
[11] = target: T3, Autoinducer 1 sensor kinase/phosphatase LuxN (Vibrio harveyi) (UniProt P0C5S6); test: Inhibition of LuxN quorum sensing signaling in Vibrio harveyi BB886 assessed as inhibition of N-acylhomoserine lactone (HAI-1) activity by measuring bioluminescence for every 20 mins by autoinducer bioassay
T3 sequence (whole entry): T1 sequence (P0C5S6 whole entry)

[12] = target: T1, Autoinducer 1 sensor kinase/phosphatase LuxN; test: Antagonist activity at LuxN signaling in Vibrio harveyi HLS253 assessed as inhibition of 3-hydroxybutanoyl homoserine lactone induced bioluminescence by autoinducer based bioluminescence assay

Chain of LuxP/Q (P54300 whole entry): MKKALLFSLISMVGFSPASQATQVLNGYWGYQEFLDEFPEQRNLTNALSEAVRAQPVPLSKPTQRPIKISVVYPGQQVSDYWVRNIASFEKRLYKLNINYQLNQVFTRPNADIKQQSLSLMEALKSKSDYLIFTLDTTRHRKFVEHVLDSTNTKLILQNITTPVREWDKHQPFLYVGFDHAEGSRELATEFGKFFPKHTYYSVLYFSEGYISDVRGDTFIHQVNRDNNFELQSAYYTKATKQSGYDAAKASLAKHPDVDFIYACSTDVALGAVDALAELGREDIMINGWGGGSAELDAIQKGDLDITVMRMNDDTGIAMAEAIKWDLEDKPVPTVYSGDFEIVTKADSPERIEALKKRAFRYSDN
Chain of LuxP/Q (P54302 whole entry): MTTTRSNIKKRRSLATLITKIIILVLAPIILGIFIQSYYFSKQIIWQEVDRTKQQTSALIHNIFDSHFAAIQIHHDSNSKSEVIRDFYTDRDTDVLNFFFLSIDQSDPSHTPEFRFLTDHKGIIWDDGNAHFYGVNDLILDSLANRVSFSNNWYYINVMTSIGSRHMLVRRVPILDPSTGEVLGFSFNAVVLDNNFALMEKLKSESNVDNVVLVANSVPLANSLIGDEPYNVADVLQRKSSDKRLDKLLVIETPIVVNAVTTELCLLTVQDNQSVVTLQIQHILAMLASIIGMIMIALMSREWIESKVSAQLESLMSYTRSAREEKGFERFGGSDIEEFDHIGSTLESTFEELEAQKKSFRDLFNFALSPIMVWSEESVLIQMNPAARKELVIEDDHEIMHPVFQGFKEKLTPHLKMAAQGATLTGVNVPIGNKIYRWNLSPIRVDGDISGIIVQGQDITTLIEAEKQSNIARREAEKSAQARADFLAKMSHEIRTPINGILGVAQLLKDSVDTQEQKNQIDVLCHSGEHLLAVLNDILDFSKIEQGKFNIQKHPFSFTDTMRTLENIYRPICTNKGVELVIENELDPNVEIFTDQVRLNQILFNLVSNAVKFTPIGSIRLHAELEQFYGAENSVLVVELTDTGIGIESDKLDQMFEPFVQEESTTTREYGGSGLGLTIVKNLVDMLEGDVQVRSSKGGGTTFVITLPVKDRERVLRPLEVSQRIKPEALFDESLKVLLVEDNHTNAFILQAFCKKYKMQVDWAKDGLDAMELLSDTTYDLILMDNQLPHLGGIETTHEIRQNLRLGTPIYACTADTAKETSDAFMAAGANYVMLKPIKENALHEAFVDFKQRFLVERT
Chain of Autoinducer 2-binding periplasmic protein LuxP (Vibrio harveyi) (P54300 whole entry): as the sequence (P54300 whole entry) above

## NC(=S)CS(=O)(=O)c1ccccn1
[1]
  IC50: 55 µM

## CCCCC/C=C\C/C=C\CCCCCCCC(=O)O
[2]
  inhibition: > 99%

## C=CCOC(=O)C1=CS(=O)(=O)c2ccccc21
[1]
  IC50: 3.06 µM

## [N-]=[N+]=N[C@H]1[C@@H](O)[C@H](n2cnc3c(N)ncnc32)O[C@@H]1CO
[3]
  IC50: 2.7 µM

## CCCCCCCCCC/C=C/C=O
[4]
  inhibition: 56%

## Brc1ccc2ncsc2c1
[1]
  IC50: 88 µM

## Brc1ccc(-c2cnco2)cc1
[1]
  IC50: 60 µM

## O=c1c(O)c(-c2ccc(O)c(O)c2)oc2cc(O)cc(O)c12
[5]
  inhibition: > 99%

## COc1cccc(/C=C/C(=O)N[C@H]2[C@@H](O)[C@H](n3cnc4c(N)ncnc43)O[C@@H]2CO)c1
LuxP/Q (Vibrio harveyi)
  inhibition: 20%

## Fc1ccccc1-c1ccc(CNCc2ccco2)o1
[1]
  IC50: 14.8 µM

## CC/C=C/C=O
[4]
  inhibition: 58%

## O=c1cc(-c2ccc(O)cc2)oc2cc(O)cc(O)c12
[5]
  inhibition: 60%

## O=c1c(O)c(-c2ccc(O)cc2)oc2cc(O)cc(O)c12
[5]
  inhibition: > 99%

## CCCCCCCCCCCCCCCC(=O)O
[2]
  inhibition: 25%

## COC(=O)c1ccc(B(O)O)cc1
LuxP/Q (Vibrio harveyi); filed as antagonist
  inhibition: > 80%
LuxP/Q
  IC50: 5 µM

## O=C/C=C/c1ccc(Cl)c(Cl)c1
[4]
  inhibition: 99%

## COc1cc(O)cc([C@@H]2CC(=O)c3c(OC)cc(O)cc3O2)c1
Vibrio harveyi [6]
  inhibition at 500 µM: 68%

## CCCCCC/C=C/C(=O)OC
[4]
  inhibition: 59%

## COc1ccc(-c2cc(=O)c3c(OC)c(OC)c(OC)cc3o2)cc1OC
[5]
  inhibition: 60%

## CCCCCCC/C=C/C=O
[4]
  inhibition: 90%

## CC(=O)/C=C/c1ccccc1
[4]
  inhibition: 78%

## CCCCCC/C=C/C(C)=O
[4]
  inhibition: 100%

## CCCCCCCC/C=C\CCCCCCCC(=O)O
[2]
  inhibition: > 75%

## COc1ccc(CCC(=O)N[C@@H]2[C@@H](CO)OC(OC)[C@@H]2O)cc1 (some centres not stated)
LuxP/Q (Vibrio harveyi); filed as antagonist
  inhibition: 40%

## C[C@@H]1O[C@@H](O[C@H]2[C@H](Oc3cc(O)c4c(c3)OC(c3ccc(O)c(O)c3)CC4=O)O[C@H](CO)[C@@H](O)[C@@H]2O)[C@H](O)[C@H](O)[C@H]1O (some centres not stated)
[5]
  inhibition: > 20%

## Nc1ncnc2c1ncn2[C@@H]1O[C@H](CO)[C@@H](N)[C@H]1O
[3]
  IC50: 2.9 µM

## OB(O)c1ccc(OCc2ccccc2)cc1
LuxP/Q
  IC50: 4 µM

## CC1=CCn2nc(N)c(/N=N/c3ccccc3)c2N1
[1]
  IC50: 19.8 µM

## CC(C)(C)S(=O)(=O)CC#N
[1]
  IC50: 110 µM

## CCCC/C=C/C(C)=O
[4]
  inhibition: 80%

## COc1ccc(C2CC(=O)c3c(O)cc(O[C@@H]4O[C@H](CO)[C@@H](O)[C@H](O)[C@H]4O[C@@H]4O[C@@H](C)[C@H](O)[C@@H](O)[C@H]4O)cc3O2)cc1O (some centres not stated)
[5]
  inhibition: > 20%

## O=C/C=C/c1ccc([N+](=O)[O-])cc1
[4]
  inhibition: 33%

## CCCCC/C=C/C=O
[4]
  inhibition: 71%

## O=C1CC(c2ccc(O)cc2)Oc2cc(O)cc(O)c21 (configuration not stated)
[5]
  inhibition: 80%

## CC(C)CC(=O)C(=O)C(O)CO (configuration not stated)
[7]
  inhibition: 50%

## O=C/C=C/c1ccccc1
[4]
  inhibition: 65%

## CCCCC1=C(Br)/C(=C/Br)OC1=O
[8]
  survival at 96 h: 90%

## CC(=O)CCc1ccccc1
[4]
  inhibition: 13%

## CN(C)c1ccc(/C=C/C=O)cc1
[4]
  inhibition: 17%

## O=C/C=C/c1c(F)c(F)c(F)c(F)c1F
[4]
  inhibition: 95%

## COc1ccc(CCC(=O)N[C@H]2[C@@H](O)[C@H](n3cnc4c(N)ncnc43)O[C@@H]2CO)cc1
LuxP/Q (Vibrio harveyi); filed as antagonist
  inhibition: 80%

## CCCCCCCCCCCCCCCCCC(=O)O
[2]
  inhibition: > 25%

## Cn1cnnc1SCC(=O)Nc1nc2ccccc2s1
[1]
  IC50: 5.51 µM

## O=C/C=C/c1ccccc1[N+](=O)[O-]
[4]
  inhibition: 62%

## CCCCCC/C=C/C(=O)CO
[4]
  inhibition: 17%

## COc1ccccc1/C=C/C=O
[4]
  inhibition: 14%

## CSc1nccc(Oc2ccccc2Cl)n1
[1]
  IC50: 3.42 µM

## NC(=S)CS(=O)(=O)c1cccs1
LuxP/Q (Vibrio harveyi); filed as antagonist
  inhibition: 60%

## O=C(O)c1ccc(-c2c(Cl)cc([N+](=O)[O-])cc2Cl)o1
[1]
  IC50: 40.1 µM

## CCCCCCC[C@@H](C/C=C/CCC(=O)O)OC
Vibrio harveyi [9]
  inhibition: 100%

## CC(=O)C1=CCCCC1
[4]
  inhibition: 16%

## O=C1C=C/C(=C/Br)O1
Vibrio harveyi [10]
  inhibition: 96%

## COc1ccc(CCC(=O)NC[C@H]2[C@@H](O)[C@H](n3cnc4c(N)ncnc43)O[C@@H]2CO)cc1
LuxP/Q (Vibrio harveyi)
  inhibition: 20%

## NC(=O)/C=C/c1ccccc1
[4]
  inhibition: 61%

## CCCCCCCC/C=C/C=O
[4]
  inhibition: 94%

## COc1cc(/C=C/C(=O)c2c(O)cc(O)cc2OC)ccc1O
Vibrio harveyi [6]
  inhibition at 500 µM: 60%

## C[C@@H]1O[C@@H](O[C@H]2[C@H](Oc3cc(O)c4c(c3)OC(c3ccc(O)cc3)CC4=O)O[C@H](CO)[C@@H](O)[C@@H]2O)[C@H](O)[C@H](O)[C@H]1O (some centres not stated)
[5]
  inhibition: 40%

## CC(C)C(=O)C(=O)C(O)CO (configuration not stated)
[7]
  inhibition: 50%

## CCC/C=C/C=O
[4]
  inhibition: 35%

## Cc1ccc(B(O)O)cc1F
LuxP/Q
  IC50: 9 µM

## CS(=O)(=O)/C=C/c1ccccc1
[4]
  inhibition: 73%

## COc1ccc(C2CC(=O)c3c(O)cc(O[C@@H]4O[C@H](CO[C@@H]5O[C@@H](C)[C@H](O)[C@@H](O)[C@H]5O)[C@@H](O)[C@H](O)[C@H]4O)cc3O2)cc1O (some centres not stated)
[5]
  inhibition: 10%

## N#Cc1ccc(B(O)O)cc1
LuxP/Q
  IC50: 6 µM

## CCCCCC/C=C/C=O
[4]
  inhibition: 100%

## CCCC/C=C/C=O
[4]
  inhibition: 55%

## CCCC/C=C/C(=O)O
[4]
  inhibition: 36%

## C/C(=C\COc1c2ccoc2cc2oc(=O)ccc12)CCC(O)C(C)(C)O (configuration not stated)
[11]
  inhibition: 96.7%

## Cc1ccc(B(O)O)c(F)c1
LuxP/Q
  IC50: 4 µM

## O=C(c1ccc(O)cc1)c1ccc(S(=O)(=O)c2ccc(O)cc2)cc1
[12]
  IC50: 2.6 µM

## CCCCC/C=C/C(C)=O
[4]
  inhibition: 100%

## CC(=O)N1CCc2cc(S(=O)(=O)NC(CC(C)C)C(=O)CCc3ccc(O)cc3)ccc21 (configuration not stated)
[12]
  IC50: 2.7 µM

## COc1ccc(/C=C/C=O)cc1
[4]
  inhibition: 34%

## CSC1=CS(=O)(=O)c2ccccc21
[1]
  IC50: 41 µM

## CCCCCCCCC/C=C/C=O
[4]
  inhibition: 87%

## CC(C)=CCC/C(C)=C/COc1c2ccoc2cc2oc(=O)ccc12
[11]
  inhibition: 96.7%

## O=C/C=C/c1ccc(Cl)c(C(F)(F)F)c1
[4]
  inhibition: 97%
